Test results as given in ChEMBL document CHEMBL6127154, “Pursuing Polypharmacology: Benzothiopyranoindoles as G-Quadruplex Stabilizers and Topoisomerase I Inhibitors for Effective Anticancer Strategies” (ACS Med Chem Lett, 2024).
The source made the active and inactive calls. No cut-off for these calls is given here.

Experiments:
[1] = test system: SN12C; test: Antiproliferative activity against human SN12C cells assessed as growth inhibition incubated for 48 hrs by SRB assay; assay type: functional
[2] = test system: 786-0; test: Antiproliferative activity against human 786-0 cells assessed as growth inhibition incubated for 48 hrs by SRB assay; assay type: functional
[3] = test system: HCT-116; test: Induction of DNA damage in human HCT-116 cells assessed as increase in 53BP1 foci positive cells incubated for 24 hrs by immunofluorescence staining based analysis; assay type: functional, cell-based
[4] = test system: A549; test: Antiproliferative activity against human A549 cells assessed as growth inhibition incubated for 48 hrs by SRB assay; assay type: functional
[5] = test system: EKVX; test: Antiproliferative activity against human EKVX cells assessed as growth inhibition incubated for 48 hrs by SRB assay; assay type: functional
[6] = test system: UO-31; test: Antiproliferative activity against human UO-31 cells assessed as growth inhibition incubated for 48 hrs by SRB assay; assay type: functional
[7] = test system: TK-10; test: Antiproliferative activity against human TK-10 cells assessed as growth inhibition incubated for 48 hrs by SRB assay; assay type: functional
[8] = test system: MDA-MB-468; test: Antiproliferative activity against human MDA-MB-468 cells assessed as growth inhibition incubated for 48 hrs by SRB assay; assay type: functional
[9] = test system: SK-OV-3; test: Antiproliferative activity against human SK-OV-3 cells assessed as growth inhibition incubated for 48 hrs by SRB assay; assay type: functional
[10] = test system: COLO 205; test: Antiproliferative activity against human COLO 205 cells assessed as growth inhibition incubated for 48 hrs by SRB assay; assay type: functional
[11] = test system: HCT-116; test: Antiproliferative activity against human HCT-116 cells assessed as growth inhibition incubated for 48 hrs by SRB assay; assay type: functional
[12] = test system: SK-MEL-5; test: Antiproliferative activity against human SK-MEL-5 cells assessed as growth inhibition incubated for 48 hrs by SRB assay; assay type: functional
[13] = test system: HOP-92; test: Antiproliferative activity against human HOP-92 cells assessed as growth inhibition incubated for 48 hrs by SRB assay; assay type: functional
[14] = test system: HT-29; test: Antiproliferative activity against human HT-29 cells assessed as growth inhibition incubated for 48 hrs by SRB assay; assay type: functional
[15] = test system: NCI/ADR-RES; test: Antiproliferative activity against human NCI/ADR-RES cells assessed as growth inhibition incubated for 48 hrs by SRB assay; assay type: functional
[16] = test system: OVCAR-5; test: Antiproliferative activity against human OVCAR-5 cells assessed as growth inhibition incubated for 48 hrs by SRB assay; assay type: functional
[17] = test system: Quadruplex DNA; test: Thermal stabilization of human Tel23-hy G4 quadruplex DNA assessed as change in melting temperature (deltaT1/2) incubated for 10 mins by circular dichroism spectroscopic analysis (reference value: 48 +/- 0.1 degreeC); assay type: nucleic-acid assay
[18] = test system: HCT-15; test: Antiproliferative activity against human HCT-15 cells assessed as growth inhibition incubated for 48 hrs by SRB assay; assay type: functional
[19] = test system: LOX IMVI; test: Antiproliferative activity against human LOX IMVI cells assessed as growth inhibition incubated for 48 hrs by SRB assay; assay type: functional
[20] = test system: SNB-75; test: Antiproliferative activity against human SNB-75 cells assessed as growth inhibition incubated for 48 hrs by SRB assay; assay type: functional
[21] = test system: UACC-62; test: Antiproliferative activity against human UACC-62 cells assessed as growth inhibition incubated for 48 hrs by SRB assay; assay type: functional
[22] = test system: DU-145; test: Antiproliferative activity against human DU-145 cells assessed as growth inhibition incubated for 48 hrs by SRB assay; assay type: functional
[23] = test system: A498; test: Antiproliferative activity against human A498 cells assessed as growth inhibition incubated for 48 hrs by SRB assay; assay type: functional
[24] = test system: CCRF-CEM; test: Antiproliferative activity against human CCRF-CEM cells assessed as growth inhibition incubated for 48 hrs by SRB assay; assay type: functional
[25] = test system: K562; test: Antiproliferative activity against human K562 cells assessed as growth inhibition incubated for 48 hrs by SRB assay; assay type: functional
[26] = biological target: Quadruplex DNA; test: Binding affinity to human parallel c-Kit2 G4 quadruplex DNA assessed as dissociation constant by MST analysis; assay type: nucleic-acid assay
[27] = test system: Quadruplex DNA; test: Thermal stabilization of FAM labeled human Tel21T G4 quadruplex DNA assessed as change in melting temperature (deltaT1/2) in presence of 15 uM unlabeled duplex competitor (ds26) by FRET assay; assay type: nucleic-acid assay
[28] = biological target: dsDNA; test: Binding affinity to human duplex ds26 DNA assessed as dissociation constant by MST analysis; assay type: nucleic-acid assay
[29] = test system: NCI-H522; test: Antiproliferative activity against human NCI-H522 cells assessed as growth inhibition incubated for 48 hrs by SRB assay; assay type: functional
[30] = biological target: dsDNA; test: Binding affinity to human […] Tel26-hy DNA assessed as dissociation constant by MST analysis; assay type: nucleic-acid assay
[31] = biological target: Quadruplex DNA; test: Binding affinity to human hybrid Tel23 G4 quadruplex DNA assessed as dissociation constant by MST analysis; assay type: nucleic-acid assay
[32] = test system: Quadruplex DNA; test: Thermal stabilization of FAM labeled human Tel21T G4 quadruplex DNA assessed as change in melting temperature (deltaT1/2) in presence of unlabeled duplex competitor (ds26) by FRET assay; assay type: nucleic-acid assay
[33] = test system: Quadruplex DNA; test: Thermal stabilization of FAM labeled human Tel21T G4 quadruplex DNA assessed as change in melting temperature (deltaT1/2) in presence of 50 uM unlabeled duplex competitor (ds26) by FRET assay; assay type: nucleic-acid assay
[34] = biological target: Quadruplex DNA; test: Binding affinity to human hybrid c-Myc G4 quadruplex DNA assessed as dissociation constant by MST analysis; assay type: nucleic-acid assay

Compound | GI [1] | GI [2] | Activity [3] | GI [4] | GI [5] | GI [6] | GI [7] | GI [8] | GI [9] | GI [10] | GI [11] | GI [12] | GI [13] | GI [14] | GI [15] | GI [16] | ΔTm [17] | GI [18] | GI [19] | GI [20] | further results
CCN(CC)CCn1c2ccc(O)cc2c2sc3cc(OC)ccc3c(=O)c21 | 5.83 µM | 1.39 µM | Active | 1.63 µM | 1.67 µM | 1.9 µM | 9.05 µM | 1.54 µM | 13.4 µM | 3.08 µM | 1.07 µM | 1.74 µM | 2.58 µM | 1.75 µM | 1.23 µM | 2.22 µM | 9.6 °C | 1.2 µM | 1.21 µM | 2.39 µM | GI [21]: 1.89 µM; GI [22]: 1.71 µM; GI [23]: 3.08 µM; GI [24]: 1.09 µM; GI [25]: 1.24 µM
CCN(CC)CCn1c2ccc(OC)cc2c2sc3cc(OC)ccc3c(=O)c21 | 2.03 µM | 1.59 µM | Active | 1.59 µM | 1.6 µM | 1.35 µM | 2.33 µM | 1.56 µM | 3.07 µM | 1.39 µM | 0.659 µM | 1.74 µM | 1.13 µM | 1.52 µM | 1.24 µM | 1.92 µM | 11 °C | 0.861 µM | 1.3 µM | 1.11 µM | Kd [26]: 300 nM; ΔTm [27]: 1.9 °C; Kd [28]: 1300 nM; GI [29]: 1.71 µM; Kd [30]: 23000 nM; Kd [31]: 9000 nM; GI [21]: 1.8 µM; GI [22]: 1.67 µM; GI [23]: 1.12 µM; ΔTm [32]: 12.6 °C; ΔTm [33]: 1.6 °C; GI [24]: 1.04 µM; Kd [34]: 2100 nM; GI [25]: 0.728 µM
